Drawing on PubChem BioAssay (NCI), this text covers TGI and GI50 for 13 compounds.

Among the test systems are HCT-15 colon; MCF7 breast; OVCAR-4 ovarian; OVCAR-8 ovarian; SF-539 CNS; SK-MEL-28 melanoma; SN12C renal; SNB-19 CNS; U251 CNS; UACC-62 melanoma.
Common to all, as to assay: NCI tumour cell line growth inhibition, 48 h

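1) Cells in 96-well plates. 2) Compound, 48 h, 5 concentrations. 3) Linear interpolation between surrounding doses. 4) Unreached endpoint = highest concentration. The concentration for 50% growth inhibition is given as GI50. TGI denotes the concentration required for complete inhibition of growth.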

For the compound `NC(=O)NCCSC1CCCCC1O` (stereo not drawn), the TGI in the test with HCT-15 colon, in the test with MCF7 breast, with OVCAR-4 ovarian, with OVCAR-8 ovarian, with SF-539 CNS and in the test on SK-MEL-28 melanoma was > 100 µM throughout. The TGI in the test on SN12C renal, with SNB-19 CNS, in the test on U251 CNS and with UACC-62 melanoma was > 100 µM in each case.

For `CCN1CCC(CC(=O)Nc2n[nH]c3nc(-c4cccs4)c(Br)cc23)CC1`, the GI50 is 6.89 µM in the test with HCT-15 colon; 6.29 µM with MCF7 breast; 11.5 µM with OVCAR-4 ovarian; 11.6 µM in the test on OVCAR-8 ovarian; 9.22 µM in the test with SF-539 CNS; 5.31 µM in the test with SK-MEL-28 melanoma. For the same compound, the GI50 is 9.51 µM with SN12C renal, 17.4 µM in the test with SNB-19 CNS, 6.78 µM in the test on U251 CNS and 5.26 µM in the test on UACC-62 melanoma. For the same compound, the TGI in the test with HCT-15 colon is > 20.6 µM; with MCF7 breast it was 18.5 µM; in the test with OVCAR-4 ovarian it was > 25 µM; in the test with OVCAR-8 ovarian, > 25 µM; in the test with SF-539 CNS, > 22.2 µM; in the test on SK-MEL-28 melanoma, 9.85 µM. The TGI is > 25 µM in the test on SN12C renal, > 25 µM with SNB-19 CNS, 19.4 µM in the test with U251 CNS and 11 µM with UACC-62 melanoma.

For the compound `O=C(/C=C\c1ccc2ccccc2n1)c1cc(Cl)ccc1O`, the GI50 in the test on HCT-15 colon was 2.43 µM; in the test on MCF7 breast, 6.48 µM; with OVCAR-4 ovarian, 5.25 µM; with OVCAR-8 ovarian it was 3.16 µM; in the test with SF-539 CNS it was 7.15 µM; with SK-MEL-28 melanoma it was 18.7 µM. For the same compound, the GI50 in the test on SN12C renal was 9.58 µM; with SNB-19 CNS it was 10.1 µM; in the test on U251 CNS, 2.31 µM; with UACC-62 melanoma, 7.51 µM. The TGI is 8.86 µM in the test with HCT-15 colon; > 100 µM with MCF7 breast; 24.6 µM with OVCAR-4 ovarian; 14.7 µM in the test on OVCAR-8 ovarian; 23.2 µM in the test on SF-539 CNS; 49.6 µM with SK-MEL-28 melanoma. The TGI in the test on SN12C renal was determined as 24.4 µM; with SNB-19 CNS, 24.5 µM; in the test on U251 CNS it was 5.2 µM; in the test with UACC-62 melanoma, 21 µM.

For `COc1cc2c(cc1OC)-c1c(c3ccc([N+](=O)[O-])cc3c(=O)n1CCCN)C2=O`, the GI50 in the test with HCT-15 colon was 1.3 µM; with MCF7 breast it was 0.0545 µM; in the test on OVCAR-4 ovarian, 1.07 µM; in the test with OVCAR-8 ovarian it was 1.01 µM; with SF-539 CNS, 0.124 µM; in the test on SK-MEL-28 melanoma, 7.25 µM. The GI50 was 0.695 µM in the test with SN12C renal, 0.944 µM in the test with SNB-19 CNS, 0.267 µM in the test on U251 CNS and 1.95 µM with UACC-62 melanoma. Also, the TGI in the test on HCT-15 colon worked out at 3.66 µM; with MCF7 breast it was 7.09 µM; in the test with OVCAR-4 ovarian, 2.72 µM; in the test on OVCAR-8 ovarian, 4.49 µM; in the test on SF-539 CNS, 1.29 µM; with SK-MEL-28 melanoma it was 15.3 µM. Further, the TGI in the test on SN12C renal stood at 6.82 µM; in the test with SNB-19 CNS, 5.9 µM; with U251 CNS, 1.05 µM; with UACC-62 melanoma, 10.8 µM.

Regarding `COc1ccc(C(=O)CC(c2ccc(OC)c(OC)c2)c2c(O)c3ccccc3oc2=O)cc1OC` (stereo not drawn), the TGI with HCT-15 colon, in the test with MCF7 breast, with OVCAR-4 ovarian, in the test on OVCAR-8 ovarian, in the test on SF-539 CNS and in the test with SK-MEL-28 melanoma was > 100 µM each time. Besides, the TGI in the test with SN12C renal, with SNB-19 CNS, in the test on U251 CNS and in the test with UACC-62 melanoma was > 100 µM in each case.

Take `CN(C)S(=O)(=O)c1ccc(Nc2ccc(O)c3c2C(=O)c2c([N+](=O)[O-])ccc(O)c2C3=O)cc1`: the TGI in the test with HCT-15 colon, in the test on MCF7 breast, in the test on OVCAR-4 ovarian, with OVCAR-8 ovarian, in the test with SK-MEL-28 melanoma and in the test with SN12C renal was > 100 µM each time. The TGI with SNB-19 CNS, in the test on U251 CNS and with UACC-62 melanoma was > 100 µM each time.

On to `N/C(=N\c1nc2ccccc2s1)NC(=O)Nc1cccc2ccccc12`, for which the GI50 was 0.126 µM in the test on HCT-15 colon; 0.209 µM with MCF7 breast; 0.521 µM in the test on OVCAR-8 ovarian; 0.242 µM in the test on SF-539 CNS; 12.9 µM in the test with SK-MEL-28 melanoma; 0.861 µM in the test on SN12C renal. Besides, the results for the GI50 in the test on SNB-19 CNS and in the test on UACC-62 melanoma were 0.574 µM and 0.354 µM, respectively. Further, the TGI in the test with HCT-15 colon is > 100 µM; in the test with MCF7 breast, > 100 µM; in the test with OVCAR-8 ovarian it was > 100 µM; in the test with SF-539 CNS it was 0.768 µM; with SK-MEL-28 melanoma it was > 100 µM; with SN12C renal, > 100 µM. For the same compound, the values for the TGI in the test with SNB-19 CNS and with UACC-62 melanoma were > 81.2 µM and > 95 µM, respectively.

Take `C=C1C(=O)O[C@H]2C[C@@H]1CCC1(C)OC1CC/C(C)=C/CC[C@H]2C` (stereo partly drawn): the GI50 in the test on HCT-15 colon is 17.3 µM; in the test with MCF7 breast it was 18 µM; in the test on OVCAR-8 ovarian, 26.8 µM; with SF-539 CNS, 28.8 µM; in the test on SN12C renal, 19 µM; with SNB-19 CNS it was 16 µM. For the same compound, the values for the GI50 with U251 CNS and in the test with UACC-62 melanoma were 17.7 µM and 17.5 µM, respectively. The TGI in the test with HCT-15 colon was determined as 31.1 µM; with MCF7 breast, 36.6 µM; in the test with OVCAR-8 ovarian it was 72.2 µM; in the test on SF-539 CNS it was 50.6 µM; in the test on SN12C renal it was 35.5 µM; in the test on SNB-19 CNS, 32.9 µM. In addition, the values for the TGI in the test with U251 CNS and in the test on UACC-62 melanoma were 31.5 µM and 31.3 µM, respectively.

As to `COc1ccc(-c2csc3c2-n2cccc2C3=O)cc1O`, the GI50 was < 0.0132 µM with HCT-15 colon; 0.0326 µM in the test on MCF7 breast; 0.579 µM in the test with OVCAR-4 ovarian; 0.0281 µM in the test with OVCAR-8 ovarian; 0.0226 µM with SF-539 CNS; 0.0365 µM with SN12C renal. The GI50 is 3.44 µM with SNB-19 CNS, 0.0332 µM with U251 CNS and 0.387 µM in the test with UACC-62 melanoma. In addition, the TGI in the test with HCT-15 colon, with MCF7 breast, with OVCAR-4 ovarian, in the test on OVCAR-8 ovarian, in the test on SF-539 CNS and with SN12C renal was > 100 µM in each case. Further, the TGI in the test on SNB-19 CNS was > 100 µM; in the test on U251 CNS, > 47.4 µM; with UACC-62 melanoma, 49.2 µM.

For `CC[C@@]1(O)C(=O)OCc2c1cc1n(c2=O)Cc2cc3c(NC(=O)CN)cccc3nc2-1`, the TGI is > 100 µM in the test with HCT-15 colon; > 100 µM in the test with MCF7 breast; > 100 µM in the test on OVCAR-4 ovarian; > 43.8 µM in the test on OVCAR-8 ovarian; > 100 µM in the test with SK-MEL-28 melanoma; 17.1 µM in the test on SN12C renal. The TGI in the test with SNB-19 CNS was > 100 µM; in the test with U251 CNS, 5.16 µM; in the test with UACC-62 melanoma it was 7.42 µM.

Consider `COc1cc2c3c(n(C)c(=O)c2cc1OC)-c1cc2c(cc1/C3=C/[C@H](N)CCCCN)OCO2`, for which the GI50 in the test on HCT-15 colon was 6.8 µM; in the test with MCF7 breast, 0.537 µM; in the test on OVCAR-4 ovarian, 2.27 µM; with OVCAR-8 ovarian, 2.27 µM; in the test with SF-539 CNS, 0.742 µM; in the test with SK-MEL-28 melanoma, 1.89 µM. In addition, the results for the GI50 with SN12C renal, with SNB-19 CNS and in the test on UACC-62 melanoma were 0.662 µM, 0.829 µM and 1.28 µM, respectively. For the same compound, the TGI in the test with HCT-15 colon was > 86.4 µM; in the test with MCF7 breast, 3.93 µM; with OVCAR-4 ovarian, 7.92 µM; in the test with OVCAR-8 ovarian, 23.4 µM; in the test on SF-539 CNS, 4.62 µM; in the test on SK-MEL-28 melanoma it was 11.2 µM. Further, the TGI was 6.39 µM in the test with SN12C renal, 20.1 µM in the test on SNB-19 CNS and 6.33 µM in the test with UACC-62 melanoma.

In the case of `COc1cc(OC)cc(-c2cncn2-c2ccc(-c3nc4cc(OC)cc(OC)c4s3)cc2)c1`, the GI50 in the test with MCF7 breast was 3.82 µM; with OVCAR-8 ovarian, 14.5 µM; in the test on SF-539 CNS it was 5.76 µM; in the test with SK-MEL-28 melanoma, > 100 µM; in the test with SN12C renal, > 100 µM; with SNB-19 CNS, > 100 µM. Besides, the GI50 with U251 CNS is 4.76 µM; in the test with UACC-62 melanoma, 4.75 µM. The TGI in the test with MCF7 breast, in the test on OVCAR-8 ovarian, in the test on SF-539 CNS, in the test on SK-MEL-28 melanoma, with SN12C renal and in the test with SNB-19 CNS was > 100 µM in each case. Moreover, the TGI with U251 CNS and in the test on UACC-62 melanoma was > 100 µM each time.

For `Cc1ccc(Oc2nc3ccccc3cc2-c2nnc(Cn3c(COc4ccccc4)nc4ccccc43)o2)cc1`, the GI50 was 2.14 µM in the test on HCT-15 colon; 0.949 µM with MCF7 breast; 2.36 µM in the test on OVCAR-4 ovarian; 2.12 µM with OVCAR-8 ovarian; 2.76 µM in the test on SN12C renal; 3.78 µM in the test on SNB-19 CNS. The GI50 in the test with U251 CNS was 1.58 µM; in the test on UACC-62 melanoma, 5.62 µM. Moreover, the TGI in the test with HCT-15 colon came out at 7.69 µM; with MCF7 breast it was 5.38 µM; in the test with OVCAR-4 ovarian, 10.2 µM; in the test with OVCAR-8 ovarian, 7.52 µM; with SN12C renal, 11.9 µM; in the test on SNB-19 CNS, 17 µM. In addition, the TGI in the test on U251 CNS was found to be 3.62 µM; in the test with UACC-62 melanoma, 20.7 µM.
